Assay results reported in paper PMC7785020, “A unique hormonal recognition feature of the human glucagon-like peptide-2 receptor” (Cell Research, 2020).
Numbering of substitutions follows the chain as printed.

Experiments:
GLP-2R R344^5.40A = biological target: T1, GLP-2R R344^5.40A (Homo sapiens, UniProt O95838, R344A); assay: radioligand competition binding, R344^5.40A; set-up: WT (1–553); expressed in transfected cells; host or cells: COS-7; details: COS-7, R344^5.40A; [^125I]GLP-2(1–33, M10Y) 10–15 pM, 4 h, 4 °C; mean ± SEM, n ≥ 3 in duplicate
T1 sequence (O95838 1-553 R344A): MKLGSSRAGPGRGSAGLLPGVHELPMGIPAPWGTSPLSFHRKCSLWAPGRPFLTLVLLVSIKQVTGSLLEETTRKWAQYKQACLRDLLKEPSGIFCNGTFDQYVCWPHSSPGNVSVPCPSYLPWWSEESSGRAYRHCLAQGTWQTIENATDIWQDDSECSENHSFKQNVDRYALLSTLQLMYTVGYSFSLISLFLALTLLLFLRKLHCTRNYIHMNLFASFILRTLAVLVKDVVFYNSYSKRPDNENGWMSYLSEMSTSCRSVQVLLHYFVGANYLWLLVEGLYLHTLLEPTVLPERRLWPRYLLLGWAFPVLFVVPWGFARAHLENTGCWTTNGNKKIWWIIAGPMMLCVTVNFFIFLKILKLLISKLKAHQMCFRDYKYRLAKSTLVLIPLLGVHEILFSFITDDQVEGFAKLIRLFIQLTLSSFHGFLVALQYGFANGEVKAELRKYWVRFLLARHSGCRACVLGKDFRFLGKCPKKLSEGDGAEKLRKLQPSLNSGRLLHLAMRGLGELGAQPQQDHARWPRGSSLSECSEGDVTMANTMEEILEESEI
Experimental: (§1) A stepwise oxidation reaction was performed by addition of 6 aliquots of 5 µL ChloramineT (30 µL/mL) with a 1-min interval during constant stirring. The reaction was terminated by the addition of 400 µL phase A (0.1% trifluoracetic acid) before being fractionated into 1 mL volume by reverse-phase high-performance liquid chromatography (RP-HPLC, Waters 600 SimiPrep system) on a C18 column. The iodinated protein was […] by increasing concentrations of phase B (Acetonitrile + 0.1% TFA) and tested for competitive binding ability.
(§2) One day before transfection, the COS-7 cells were seeded in 75 cm^2 culture flasks (3 million cells/flask) in DMEM, containing 3.9 g/L NaHCO3 and supplemented with 10% FBS, 1% L-glutamine, 180 units/mL penicillin and 45 µg/mL streptomycin. After an overnight culture at 37 °C, 10% CO2 and 95% air humidity, the cells were transiently transfected with different GLP-2R constructs or pcDNA3.1 vector as previously described.[52] Following 24-h incubation, the cells were transferred to Costa® microtiter plates (150,000 cells/well, PerkinElmer) to achieve a 5%–10% specific binding. […] The cells were then washed twice in binding buffer (4 °C), lysed and counted for radioactivity using a Wallac Gamma Counter (PerkinElmer).

GLP-2R K414^7.35A = biological target: T2, GLP-2R K414^7.35A (Homo sapiens, UniProt O95838, K414A); assay: radioligand competition binding, K414^7.35A; set-up: WT (1–553); expressed in transfected cells; host or cells: COS-7; details: COS-7, K414^7.35 A; [^125I]GLP-2(1–33, M10Y) 10–15 pM, 4 h, 4 °C; mean ± SEM, n ≥ 3 in duplicate
T2 sequence (O95838 1-553 K414A): T1 sequence (O95838 1-553 R344A) with A344R, K414A
Experimental: as §1, §2

GLP-2R D244^ECL1A = biological target: T3, GLP-2R D244^ECL1A (Homo sapiens, UniProt O95838, D244A); assay: radioligand competition binding, D244^ECL1A; set-up: WT (1–553); expressed in transfected cells; details: COS-7, D244^ECL1A; [^125I]GLP-2(1–33, M10Y) 10–15 pM, 4 h, 4 °C; mean ± SEM, n ≥ 3 in duplicate
T3 sequence (O95838 1-553 D244A): T1 sequence (O95838 1-553 R344A) with D244A, A344R
Experimental: as §1, §2

SMILES	% Binding of WT (GLP-2R R344^5.40A) [%]	% Binding of WT (GLP-2R K414^7.35A) [%]	% Binding of WT (GLP-2R D244^ECL1A) [%]
CC[C@H](C)[C@H](NC(=O)[C@H](Cc1ccccc1)NC(=O)[C@H](CC(=O)O)NC(=O)[C@H](CCCNC(=N)N)NC(=O)[C@H](C)NC(=O)[C@H](C)NC(=O)[C@H](CC(C)C)NC(=O)[C@H](CC(N)=O)NC(=O)[C@H](CC(=O)O)NC(=O)[C@H](CC(C)C)NC(=O)[C@@H](NC(=O)[C@@H](NC(=O)[C@H](CC(N)=O)NC(=O)[C@H](CCSC)NC(=O)[C@H](CCC(=O)O)NC(=O)[C@H](CC(=O)O)NC(=O)[C@H](CO)NC(=O)[C@H](Cc1ccccc1)NC(=O)[C@H](CO)NC(=O)CNC(=O)[C@H](CC(=O)O)NC(=O)[C@H](C)NC(=O)[C@@H](N)Cc1c[nH]cn1)[C@@H](C)O)[C@@H](C)CC)C(=O)N[C@@H](CC(N)=O)C(=O)N[C@@H](Cc1c[nH]c2ccccc12)C(=O)N[C@@H](CC(C)C)C(=O)N[C@H](C(=O)N[C@@H](CCC(N)=O)C(=O)N[C@H](C(=O)N[C@@H](CCCCN)C(=O)N[C@H](C(=O)N[C@H](C(=O)N[C@@H](CC(=O)O)C(=O)O)[C@@H](C)O)[C@@H](C)CC)[C@@H](C)O)[C@@H](C)CC [Human GLP-2 (1–33)]	5.0 ± 0.8	15.2 ± 1.0	69.1 ± 4.9
CC[C@H](C)[C@H](NC(=O)[C@H](Cc1ccccc1)NC(=O)[C@H](CC(=O)O)NC(=O)[C@H](CCCNC(=N)N)NC(=O)[C@H](C)NC(=O)[C@H](C)NC(=O)[C@H](CC(C)C)NC(=O)[C@H](CC(N)=O)NC(=O)[C@H](CC(=O)O)NC(=O)[C@H](CC(C)C)NC(=O)[C@@H](NC(=O)[C@@H](NC(=O)[C@H](CC(N)=O)NC(=O)[C@H](CCSC)NC(=O)[C@H](CCC(=O)O)NC(=O)[C@H](CC(=O)O)NC(=O)[C@H](CO)NC(=O)[C@H](Cc1ccccc1)NC(=O)[C@H](CO)NC(=O)CNC(=O)[C@H](CC(=O)O)NC(=O)CNC(=O)[C@@H](N)Cc1c[nH]cn1)[C@@H](C)O)[C@@H](C)CC)C(=O)N[C@@H](CC(N)=O)C(=O)N[C@@H](Cc1c[nH]c2ccccc12)C(=O)N[C@@H](CC(C)C)C(=O)N[C@H](C(=O)N[C@@H](CCC(N)=O)C(=O)N[C@H](C(=O)N[C@@H](CCCCN)C(=O)N[C@H](C(=O)N[C@H](C(=O)N[C@@H](CC(=O)O)C(=O)O)[C@@H](C)O)[C@@H](C)CC)[C@@H](C)O)[C@@H](C)CC [Teduglutide]	3.5 ± 0.8	13.9 ± 0.8	77.5 ± 5.7
